Measured values from US7339026B2, “mda-9 protein” (The Trustees of Columbia University In the City of New York, priority 1996, dated 2008).

Key:
Type in all cases: cell-based, human
C8161 = assay: Effect of recombinant immune interferon (IFN-γ) on growth (cell numbers); settings: 96 hr
From the text: (§1) Cell lines and culture conditions. H0-1 is a melanotic melanoma cell line produced from a metastatic inguinal node lesion from a person and was used between passages 170 and 200 (Giovanella et al., 1976; Huberman et al., 1979; Fisher et al., 1985). C8161 is a highly metastatic amelanotic human melanoma cell line derived from an abdominal wall metastasis (Welch et al., 1991). FM516-SV is a normal human melanocyte culture immortalized by the SV40 T-antigen gene (Melber et al., 1989). The WM35 cell line was isolated from a patient with a radial growth phase primary melanoma (Herlyn, 1990). The WM278 cell line is from a patient with an early vertical growth phase primary melanoma (Herlyn, 1990). Cultures were grown at 37° C. in a 95% air 5% C02-humidified incubator in Dulbecco's modified Eagle's medium (DMEM) supplemented with 5 or 10% fetal bovine serum. Cultures were maintained in the logarithmic phase of growth by subculturing (1:5 or 1:10) prior to confluence approximately every 4 to 7 D.

FM516-SV [1] = assay: as above; settings: 96 hr
From the text: as §1

H0-1 = assay: as above; settings: 96 hr
From the text: as §1

WM35 = assay: as above; settings: 96 hr
From the text: as §1

WM278 = assay: as above; settings: 96 hr
From the text: as §1

[2] = tested on: mda-9 expression in H0-1 cells; assay: mda-9 RNA expression by Northern blotting, equalized to GAPDH; settings: H0-1
Description: FIG. 1. Temporal expression of mda-9 in H0-1 cells exposed to IFN-β+MEZ. RNAs were isolated from untreated and H0-1 cells treated with IFN-β+MEZ (2000 U/ml+10 ng/ml) for 0.25, 0.5, 1, 2, 4, 8, 12 and 24 h. Ten micrograms of total cellular RNA were separated on 1% agarose gel, transferred to nylon membranes, sequentially hybridized with an mda-9 and then a GAPDH probe, and then exposed to autoradiography.
FIG. 4. Effect of interferons on mda-9 expression in H0-1 cells. H0-1 cells were grown for 96 h in the absence or presence of IFN-α (100 and 1000 U/ml), IFN-β (100 and 1000 U/ml) or IFN-γ (100 U/ml) and RNA was analyzed as described in FIG. 1.
FIGS. 9A-9B. Temporal and dose kinetics of IFN-γ enhancement in mda-9 expression in H0-1 human melanoma cells. H0-1 cells were treated for the indicated time (FIG. 9A) and dose (FIG. 9B) of IFN-γ, RNA was then isolated and analyzed by Northern blotting. […] Replicate samples varied by ≦15%.
(§2) Cell Lines and Culture Conditions. H0-1 is a melanotic melanoma cell line produced from a metastatic inguinal lymph node lesion from a person and was used between passages 150 and 175 (13,21,22). FM516-SV is a normal human melanocyte culture immortalized by the SV40 T-antigen gene (23). Additional melanoma cell lines established from patients with metastatic melanomas that were evaluated, include LO-1, SH-1, WM239, MeWo, SKMEL-p53 wt (containing a wild-type p53 gene) and SKMEL-p53 mut (containing a mutant p53 gene) (13,21,24). Cultures were grown at 37° C. in a 95% air 5% C02-humidified incubator in Dulbecco's modified Eagle's medium (DMEM) supplemented with 5 or 10% fetal bovine serum (Hyclone, Utah). Cultures were maintained in the logarithmic phase of growth by subculturing (1:5 or 1:10) prior to confluence approximately every 4 to 7 d. For determining steady-state RNA expression, cultures were seeded at 1.5×10^6 cells per 10-cm tissue culture plate, and 24 h later the medium was changed without inducers or with IFN-β (2000 U/ml), MEZ (10 ng/ml) or IFN-β+MEZ (2000 U/ml+10 ng/ml). Total cytoplasmic RNA was isolated at various time points and analyzed for mda-9 and GAPDH expression.
RNA Isolation, Northern Blotting and Southern Blotting of Genomic DNAs. Total cellular RNA was isolated by the guanidinium/phenol procedure and Northern blotting was performed as described (30-32). Ten μg of RNA were denatured with glyoxal/dimethyl sulfoxide (DMSO), electrophoresed on 1.0% agarose gels, transferred to nylon membranes and hybridized to a ^32P-labeled mda-9 probe and then after stripping the membranes were hybridized to a ^32P-labeled rat GAPDH probe (33) as described previously (30-32). […] RNA blots were quantitated by densitometric analysis using a Molecular Dynamics densitometer (Sunnyvale, Calif.) (34). […]

H0-1 cells = assay: Effect of interferons on growth of H0-1 cells (FIG. 3); settings: 4 d treatment with 100 U/ml interferon
Description: FIG. 3. […] Results are the average cell number ±S.D. from the mean.
Experiments were performed to determine if a relationship exists between growth suppression and reduced mda-9 expression. To test this connection, the effect of interferon and MEZ treatment on proliferation and mda-9 expression in human melanoma cells was determined.

[3] = tested on: mda-9 expression in FM516-SV cells; assay: mda-9 RNA expression by Northern blotting, densitometer comparison with GAPDH
Description: FIG. 2. Effects of IFN-β+MEZ on mda-9 expression in human melanoma cells and an SV40-immortalized human melanocyte cell line. The indicated cell line was grown in the presence or absence of IFN-β+MEZ (2000 U/ml+10 ng/ml) for 96 h and RNA was analyzed as described in FIG. 1.
as §2, with “Cultures were maintained in the logarithmic phase of growth by subculturing (1:5 or 1:10) prior to confluence approximately every 4 to 7 d. For determining steady-state RNA expression, cultures were seeded at 1.5×10^6 cells per 10-cm tissue culture plate, and 24 h later the medium was changed without inducers or with IFN-β (2000 U/ml), MEZ (10 ng/ml) or IFN-β+MEZ (2000 U/ml+10 ng/ml).” left out
RNA Isolation, Northern Blotting and Southern Blotting of Genomic DNAs. […] RNA blots were quantitated by densitometric analysis using a Molecular Dynamics densitometer (Sunnyvale, Calif.) (34). […]

SKMEL-p53 mut = assay: Growth of cell line with IFN-β and MEZ, alone and in combination (Coulter Counter cell numbers); settings: 96-h growth, IFN-β 2000 U/ml, MEZ 10 ng/ml, IFN-β + MEZ 2000 U/ml + 10 ng/ml
Description: as §2

FM516-SV [4] = assay: as above; settings: 96-h growth, IFN-β 2000 U/ml, MEZ 10 ng/ml, IFN-β + MEZ 2000 U/ml + 10 ng/ml
Description: as §2

HO-1 = assay: as above; settings: HO-1; 96-h growth; IFN-β 2000 U/ml, MEZ 10 ng/ml, IFN-β + MEZ 2000 U/ml + 10 ng/ml
Description: as §2

SKMEL-p53 wt = assay: as above; settings: 96-h growth, IFN-β 2000 U/ml, MEZ 10 ng/ml, IFN-β + MEZ 2000 U/ml + 10 ng/ml
Description: as §2

LO-1 = assay: as above; settings: 96-h growth, IFN-β 2000 U/ml, MEZ 10 ng/ml, IFN-β + MEZ 2000 U/ml + 10 ng/ml
Description: as §2

MeWo = assay: as above; settings: 96-h growth, IFN-β 2000 U/ml, MEZ 10 ng/ml, IFN-β + MEZ 2000 U/ml + 10 ng/ml
Description: as §2

WM239 = assay: as above; settings: 96-h growth, IFN-β 2000 U/ml, MEZ 10 ng/ml, IFN-β + MEZ 2000 U/ml + 10 ng/ml
Description: as §2

SH-1 = assay: as above; settings: 96-h growth, IFN-β 2000 U/ml, MEZ 10 ng/ml, IFN-β + MEZ 2000 U/ml + 10 ng/ml
Description: as §2

## IFN-γ: Recombinant human IFN-γ (type II, immune interferon)
C8161; 1 U/ml of IFN-γ
  average cell number ± S.D.: 24.4 ± 0.8
  percent of cell number reduction versus control: 30%
C8161; 10 U/ml of IFN-γ
  average cell number ± S.D.: 25.1 ± 0.8
  percent of cell number reduction versus control: 28%
C8161; 100 U/ml of IFN-γ
  average cell number ± S.D.: 22.2 ± 1.4
  percent of cell number reduction versus control: 36%
FM516-SV [1]; 1 U/ml of IFN-γ
  average cell number ± S.D.: 16.8 ± 0.5
  percent of cell number reduction versus control: 19%
FM516-SV [1]; 10 U/ml of IFN-γ
  average cell number ± S.D.: 9.8 ± 0.6
  percent of cell number reduction versus control: 52%
FM516-SV [1]; 100 U/ml of IFN-γ
  average cell number ± S.D.: 5.1 ± 0.3
  percent of cell number reduction versus control: 75%
H0-1; 1 U/ml of IFN-γ
  average cell number ± S.D.: 15.8 ± 0.5
  percent of cell number reduction versus control: 22%
H0-1; 10 U/ml of IFN-γ
  average cell number ± S.D.: 15.4 ± 0.3
  percent of cell number reduction versus control: 24%
H0-1; 100 U/ml of IFN-γ
  average cell number ± S.D.: 11.5 ± 1.3
  percent of cell number reduction versus control: 44%
WM35; 1 U/ml of IFN-γ
  average cell number ± S.D.: 84.8 ± 6.7
  percent of cell number reduction versus control: 2%
WM35; 10 U/ml of IFN-γ
  average cell number ± S.D.: 62.7 ± 4.3
  percent of cell number reduction versus control: 28%
WM35; 100 U/ml of IFN-γ
  average cell number ± S.D.: 28.2 ± 1.7
  percent of cell number reduction versus control: 67%
WM278; 1 U/ml of IFN-γ
  average cell number ± S.D.: 14.9 ± 0.8
  percent of cell number reduction versus control: 33%
WM278; 10 U/ml of IFN-γ
  average cell number ± S.D.: 12.7 ± 1.0
  percent of cell number reduction versus control: 42%
WM278; 100 U/ml of IFN-γ
  average cell number ± S.D.: 12.5 ± 0.6
  percent of cell number reduction versus control: 44%
[2]; 100 U/ml of recombinant human IFN-γ
  time at which enhanced mda-9 expression is apparent: ≤ 2 h
[2]; IFN-γ dose-response
  dose giving maximum enhancing effects on mda-9 expression: 10 U/ml
  low dose at which mda-9 expression is elevated: 0.1 U/ml
H0-1 cells
  reduction of H0-1 growth: ~43%
[3]; IFN-γ dose-response
  dose giving maximum enhancing effects on mda-9 expression: 10 U/ml
[3]; IFN-γ dose-response (data not shown)
  low dose at which mda-9 expression is elevated: 0.1 U/ml

B1: IFN-β: Recombinant human IFN-β, with a serine substituted for a cysteine at position 17 of the molecule (protein, UniProt P01574 22-187, looked up, variant C17S)
Interferon beta: MSYNLLGFLQRSSNFQSQKLLWQLNGRLEYCLKDRMNFDIPEEIKQLQQFQKEDAALTIYEMLQNIFAIFRQDSSSTGWNETIVENLLANVYHQINHLKTVLEEKLEKEDFTRGKLMSSLHLKRYYGRILHYLKAKEYSHCAWTIVRVEILRNFYFINRLTGYLRN
H0-1 cells
  reduction of H0-1 growth: ~70%
SKMEL-p53 mut
  Cell numbers (average of triplicate plates ± S.D.): 39.5 ± 7.5
  percent of control growth: (109) %
FM516-SV [4]
  Cell numbers (average of triplicate plates ± S.D.): 7.8 ± 1.0
  percent of control growth: (37) %
HO-1
  Cell numbers (average of triplicate plates ± S.D.): 14.0 ± 2.6
  percent of control growth: (22) %
SKMEL-p53 wt
  Cell numbers (average of triplicate plates ± S.D.): 9.1 ± 0.3
  percent of control growth: (54) %
LO-1
  Cell numbers (average of triplicate plates ± S.D.): 1.3 ± 0.3
  percent of control growth: (8) %
MeWo
  Cell numbers (average of triplicate plates ± S.D.): 15.6 ± 1.9
  percent of control growth: (46) %
WM239
  Cell numbers (average of triplicate plates ± S.D.): 9.5 ± 0.9
  percent of control growth: (19) %
SH-1
  Cell numbers (average of triplicate plates ± S.D.): 14.3 ± 1.5
  percent of control growth: (57) %
